Laboratory results as given in patent publication US20250332212A1, “METHOD FOR TREATING OR PREVENTING ALOPECIA” (Suzhou Mingren Pharmaceutical Biotechnology Co., Ltd., priority 2024, published 2025).
Square brackets hold non-standard residues; d marks the D form. Ends that are not written are not given here. pS = N[C@@H](COP(=O)(O)O)C(=O)O

Legend:
[1] = JP1 stability experiment in skin-coating solvent (HPLC); type: physicochemical; details: 14 days
Method: This example further explored the stability of JP1 in the skin-coating solvent. In this example, the solvent group and JP1 group were designed, and the content and molecular weight of JP1 in the skin-coating solvent were detected using high performance liquid chromatography on days 1, 3, 7, and 14, respectively, after the solution was formulated for evaluation. The prepared solutions were placed in a refrigerator at 4° C. The details of the experiments are shown in “II. JP1 Stability Experiments” of “Experimental Methods” below.
The stability of JP1 dissolved in a skin-coating solvent was tested at different time points. JP1 was prepared with the skin-coating solvent, and a solvent control group and a 10 mM JP1 group were set up. The prepared solution was stored in a refrigerator at 4° C. The five time points of 0, 1, 3, 7 and 14 days were detected by high performance liquid chromatography (HPLC), and the standard curve was plotted with the peak area as the vertical coordinate and the concentration of JP1 as the horizontal coordinate.

[2] = system: TP-induced AGA model mice; test: TP-induced AGA model, Animal model I (JP1 intraperitoneal or topical skin-coating); type: in vivo, C57BL/6J male mice
Excerpt: C57BL/6 mice were selected for modeling in this example according to the first design scheme (FIG. 1A). For more details, see “Animal model I” of “1. TP-induced AGA model” in “Experimental Methods” below.
(§1) The mice used in this study were 5-week-old C57BL/6J male mice (18-20 g), which were purchased from Jiangsu Jicui Pharmachem Biotechnology Co. All the animals used in the experiments were housed in the SPF-level environment of the Medical Laboratory Animal Center of Nanjing Medical University, and the relevant animal experimental operations were approved by the Animal Ethics Committee of Nanjing Medical University. The control group was left untreated, and the other groups were injected with TP subcutaneously on their backs every day. Two weeks later, the hair on the backs of the mice was shaved with an electric razor, covering an area of 2 cm×4 cm, and then the residual hair was removed with a hair removal cream. The subcutaneous injections of TP on the shaved backs of the mice in the AGA model was continued until the end of the experimental period, and the administration of TP in each of the treatment groups was begun on the 1st day of the dehairing process.
In addition to the normal control group (denoted as control) n=3, all mice injected subcutaneously with TP were randomly divided into the following groups (n=3): the model group (denoted as model), the 1 wt. % JP1 and 2% JP1 (intraperitoneal), the 1% JP1 and 2% JP1 (topical skin-coating, denoted as apply), the 5% minoxidil group, and the 2% JP1 (intraperitoneal) combined with 5% minoxidil group. The mice were administered continuously for 35 days, euthanized.
(§2) Mice were weighed every two days during the experiment. Skin color was assessed against skin score charts. The mice were euthanized and treated at the end of the experiment, and skin tissues were taken from the dorsal decorticated area of the mice. Some of the tissues were fixed with 4% paraformaldehyde solution and then paraffin sections were made for H&E or immunofluorescence staining, etc., and some of the tissues were stored in the refrigerator at −80° C. for relevant molecular expression assays (qRT-PCR, Western Blot, IP, etc.).
(§3) 8.1) Sampling and fixation: After the experiment, skin tissue was taken from the depilated area on the back of the mouse and placed in a 10 mL EP tube. 4% paraformaldehyde was added to the EP tube, and all tissues were immersed to denature and coagulate the proteins of the skin tissue. The original morphology and structure of the cells were maintained.
(§4) 8.6) H&E staining: the sections pretreated in distilled water were put into aqueous hematoxylin solution for a few minutes for staining. The color was separated in acid water and ammonia for a few seconds each. After rinsing in running water for 1 h, the sections were placed in distilled water for a few moments. The sections were dehydrated in 70% and 90% alcohol for 10 min each, and stained in alcoholic eosin stain for 2-3 min.

[3] = system: SRD5A2; test: qPCR of SRD5A2 mRNA in skin tissue of model mice; type: in vivo, mouse; details: model II, P>0.05
Method: (§5) 6.1) Sample preparation: 15-20 mg of mouse skin tissue was placed in a 1.5 mL centrifuge tube, and 600 μL of pre-cooled lysate was quickly added, and homogenized with an electric homogenizer. The homogenate obtained was blown gently 10 times, left at room temperature for 3-5 min, then centrifuged at 14,000×g for 5 min, and the supernatant was transferred to a new centrifuge tube with a pipette gun of suitable volume.
(§6) 6.10) Reverse transcribe the RNA into cDNA according to the instructions of the reverse transcription kit, and then carry out subsequent experiments or store at −20° C. for later use.
(§7) 7.1) Dilute the specific gene amplification primers to 10 µM in ddH2O, prepare the qPCR reaction system according to the instructions in the kit and add them sequentially into a 384-well plate.
(§8) 7.3) Relative mRNA expression levels of genes were calculated by the […] relative quantification method using GAPDH as an internal reference.

[4] = system: AR; test: qPCR of AR mRNA in skin tissue of model mice; type: in vivo, mouse; details: model II, P>0.05
Method: as §5, §6, §7, §8

[5] = system: TP-induced AGA model mice; test: TP-induced AGA model, Animal model II (JP1 topical, dose-effect); type: in vivo, C57BL/6J male mice; details: for hair coverage on the 18th day: twice a day
Method: To prolong the action time of JP1, the design scheme of the animal model in this example adjusted the once-a-day of the first model to twice-a-day administration with an interval of 6 h (FIG. 6A). For details of the experiments, please refer to “Animal model II” of “1. TP-induced AGA model” in “Experimental Methods” below.
as §1
In addition to the normal control group (denoted as control) n=20, all mice injected subcutaneously with TP were randomly divided into the following groups (n=20): the model group (denoted as model), the 0.1% JP1, the 0.5% JP1, the 1% JP1 (all administered by topical dermal application), and the 5% minoxidil group.
as §2, §3, §4

[6] = H&E longitudinal section, each JP1 treatment group vs model and solvent groups

FPGSDRF-RGD (FPG[pS]DRFRGD) [JP1, amino acid S is phosphorylated; JWA peptide]
JP1 degradation in skin-coating solvent ([1]; 10 mM JP1, 4° C.): no JP1 degradation was detected
peak area of the substance produced by degradation ([1]; skin-coating solvent, 4° C.): less than 0.5 mAU
percentage of the main peak area ([1]; skin-coating solvent, 4° C.): ~100%
hair growth index (skin color score) vs model group ([2]; 1% JP1, intraperitoneal injection, P>0.05): statistically not significant
hair growth index (skin color score) vs solvent group (vehicle (apply)) ([2]; 2% JP1 (apply), topical skin coating): higher than that of the solvent group
hair growth index (skin color score) vs model group ([2]; 2% JP1 (apply), topical skin coating, P<0.05): higher than that of the model group
hair growth index (skin color score) vs model group ([2]; 2% JP1, intraperitoneal injection, P<0.001): significantly higher than that of the model group
hair growth (skin appearance on the back) ([2]; AGA mice, JP1 injected intraperitoneally or applied to the skin): promoted hair growth
dermal layer thickness [2, 6]: increased dermal layer thickness
hair follicle length [2, 6]: longer hair follicle length
difference in body weight gain between groups ([2]; during mouse modeling, P>0.05): not statistically significant
effect on hair follicle cycle relative to minoxidil ([2]; skin of AGA model mice): comparable to the effect of minoxidil
hair follicle cycle (resting phase / anagen phase) ([2]; skin of AGA model mice): shorten the resting phase of the hair follicle
SRD5A2 mRNA level, difference between groups [3]: no statistically significant difference
AR mRNA level, difference between groups [4]: no statistically significant difference
hair coverage on the 18th day ([5]; 0.1% JP1 topical): lowest
hair bulb size on day 11 among groups ([5]; 1% JP1 group): largest
hair coverage on the 18th day ([5]; 1% JP1 topical): highest hair coverage
hair follicle phase on day 11 ([5]; H&E longitudinal, model group just entered the anagen phase): mid-growth phase
total number of hair follicles vs model group ([5]; H&E transverse sections, day 11): increased significantly and dose-dependently
effect on growth cycle of hair follicles ([5]; JP1 or minoxidil intervention): accelerate the entry of hair follicles into the anagen phase and shorten the resting phase
diameter of the hair bulb vs model group ([5]; day 11): significantly larger than that of the model group
difference between body weights of the groups ([5]; during the experiment): no statistically significant difference
hair follicle phase on day 32 ([5]; medium and high dose JP1 group, model group entered the resting phase): entered the anagen phase again
dose-effect relationship of AGA hair follicle regeneration ([5]; skin-coating 0.1%, 0.5%, 1% JP1): significant dose-effect relationship
skin color on the 11th day ([5]; topical, model group appeared orange): changed to gray
